The source made the active and inactive calls. No cut-off for these calls is given here.
Legend:
HT-29 = assay: Growth inhibition of human HT-29 cells at 10 uM after 48 hrs by SRB assay relative to control; type: functional; details: HT-29, 48 h, read-out: GI
CCRF-CEM = assay: Growth inhibition of human CCRF-CEM cells at 10 uM after 48 hrs by SRB assay relative to control; type: functional; details: read-out: GI
NCI-H322M = assay: Growth inhibition of human NCI-H322M cells at 10 uM after 48 hrs by SRB assay relative to control; type: functional; details: read-out: GI
HCT-116 = assay: Growth inhibition of human HCT116 cells at 10 uM after 48 hrs by SRB assay relative to control; type: functional; details: for inhibition of growth at 10 µM: HCT-116, 48 h, read-out: GI
KM12 = assay: Growth inhibition of human KM12 cells at 10 uM after 48 hrs by SRB assay relative to control; type: functional; details: KM12, 48 h, read-out: GI
SF-268 = assay: Growth inhibition of human SF268 cells at 10 uM after 48 hrs by SRB assay relative to control; type: functional; details: SF-268, 48 h, read-out: GI
UACC-257 = assay: Growth inhibition of human UACC257 cells at 10 uM after 48 hrs by SRB assay relative to control; type: functional
NCI/ADR-RES = assay: Growth inhibition of human NCI/ADR-RES cells at 10 uM after 48 hrs by SRB assay relative to control; type: functional; details: read-out: GI
MCF7 = assay: Growth inhibition of human MCF7 cells at 10 uM after 48 hrs by SRB assay relative to control; type: functional; details: MCF7, 48 h, read-out: GI
MDA-MB-468 = assay: Growth inhibition of human MDA-MB-468 cells at 10 uM after 48 hrs by SRB assay relative to control; type: functional; details: for inhibition of growth at 10 µM: MDA-MB-468, 48 h, read-out: GI
[1] = target: T1, M-phase inducer phosphatase 1 (Homo sapiens, UniProt P30304); assay: Inhibition of human CDC25A using OMFP as substrate after 15 mins by fluorescence assay
T1 sequence (P30304 whole entry): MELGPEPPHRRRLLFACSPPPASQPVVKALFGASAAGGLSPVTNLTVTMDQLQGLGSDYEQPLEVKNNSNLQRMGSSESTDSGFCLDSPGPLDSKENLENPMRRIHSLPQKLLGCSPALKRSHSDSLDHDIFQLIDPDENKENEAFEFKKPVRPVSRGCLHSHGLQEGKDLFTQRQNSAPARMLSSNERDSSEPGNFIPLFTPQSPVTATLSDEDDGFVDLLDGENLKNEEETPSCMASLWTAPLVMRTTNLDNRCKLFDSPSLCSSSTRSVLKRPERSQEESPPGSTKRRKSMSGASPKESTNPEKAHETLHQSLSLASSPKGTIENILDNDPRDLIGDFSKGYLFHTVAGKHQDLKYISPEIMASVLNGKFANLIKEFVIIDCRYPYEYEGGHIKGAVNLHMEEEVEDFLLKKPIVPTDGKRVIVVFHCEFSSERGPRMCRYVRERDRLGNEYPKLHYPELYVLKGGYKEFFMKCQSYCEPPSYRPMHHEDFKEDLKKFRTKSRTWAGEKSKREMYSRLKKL

Compound	inhibition of growth at 10 µM (HT-29)	inhibition of growth at 10 µM (CCRF-CEM)	inhibition of growth at 10 µM (NCI-H322M)	growth inhibition (GI) (HCT-116)	inhibition of growth at 10 µM (KM12)	inhibition of growth at 10 µM (SF-268)	growth inhibition (GI) (UACC-257)	inhibition of growth at 10 µM (NCI/ADR-RES)	inhibition of growth at 10 µM (MCF7)	inhibition of growth at 10 µM (MDA-MB-468)	IC50 [1]	inhibition of growth at 10 µM (HCT-116)	growth inhibition (GI) (MDA-MB-468)	inhibition of growth at 10 µM (UACC-257; UACC-257, 48 h, read-out: GI)
COc1ccc(Cc2nnc(SCC(=O)c3ccc(Cl)cc3)n2-c2ccccc2)cc1	2.08%	7.71%	8.4%	inactive	5.87%	3.38%	inactive	10.3%	6.26%	8.55%	30.7 µM	–	–	–
COc1ccc(Cc2nnc(SCC(=O)Nc3ccc(Cl)cc3)n2Cc2ccccc2)cc1	10%	22.4%	14.5%	–	16.7%	12%	inactive	14.3%	11.1%	–	14.1 µM	11%	inactive	–
COc1ccc(Cc2nnc(SCC(=O)c3ccc(Cl)cc3)n2Cc2ccccc2)cc1	3%	20%	26%	–	10%	11.8%	–	21.5%	10%	16%	11.4 µM	11.6%	–	6.9%
COc1ccc(Cc2nnc(SCC(=O)c3ccc(Cl)cc3)n2-c2ccc(C)cc2)cc1	4.07%	23%	4%	inactive	7.12%	1.22%	inactive	12%	8.76%	11%	20.5 µM	–	–	–
COc1ccc(Cc2nnc(SCC(=O)Nc3ccc(Cl)cc3)n2-c2ccccc2)cc1	2.73%	21.4%	8.75%	–	14.5%	12.6%	inactive	11.4%	4.1%	–	32.9 µM	2%	inactive	–

Reference: ChEMBL document CHEMBL4190322, “Structure-based development of novel triazoles and related thiazolotriazoles as anticancer agents and Cdc25A/B phosphatase inhibitors. Synthesis, in vitro biological evaluation, molecular docking and in silico ADME-T studies” (Eur J Med Chem, 2017)
